In this assay the target is Peptidyl-prolyl cis-trans isomerase A, cyclophilin A (Homo sapiens) (UniProt P62937). Kind of assay: The compound was tested for inhibition of […] isomerase (PPIase).
Peptidyl-prolyl cis-trans isomerase A, cyclophilin A (Homo sapiens), sequence (P62937 whole entry, looked up): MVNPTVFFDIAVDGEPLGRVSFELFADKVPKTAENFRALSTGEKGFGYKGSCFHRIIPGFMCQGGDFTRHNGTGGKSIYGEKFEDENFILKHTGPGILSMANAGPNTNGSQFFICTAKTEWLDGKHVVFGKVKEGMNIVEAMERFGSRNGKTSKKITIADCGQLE

As to `C/C=C/CC(C)[C@@H](O)[C@H]1C(=O)N[C@@H](CC)C(=O)N(C)CC(=O)N(C)[C@@H](CC(C)C)C(=O)N[C@@H](C(C)C)C(=O)N(C)[C@H](CC(C)C)C(=O)N[C@H](Cc2ccccc2)C(=O)N[C@@H](CO)C(=O)N(C)[C@H](CC(C)C)C(=O)N(C)[C@@H](CC(C)C)C(=O)N(C)[C@H](C(C)C)C(=O)N1C` (stereo partly drawn) [15-Benzyl-30-ethyl-12-hydroxymethyl-33-(1-hydroxy-2-methyl-hex-4-enyl)-6,9,18,24-tetraisobutyl-3,21-diisopropyl-1,4,7,10,19,25,28-heptamethyl-1,4,7,10,13,16,19,22,25,28,31undecaaza-cyclotritriacontan-2,5,8,11,14,17,20,23,26,29,32-undecaone], the Ki (usually the dissociation constant of the complex between target and ligand, obtained from inhibition or displacement) was determined as 6 nM.

`C/C=C/CC(C)[C@@H](O)[C@H]1C(=O)N[C@@H](CC)C(=O)N(C)CC(=O)N(C)[C@@H](CC(C)C)C(=O)N[C@@H](C(C)C)C(=O)N(C)[C@H](CC(C)C)C(=O)N[C@H](Cc2ccccc2)C(=O)N[C@H](C)C(=O)N(C)[C@H](CC(C)C)C(=O)N(C)[C@@H](CC(C)C)C(=O)N(C)[C@H](C(C)C)C(=O)N1C` (stereo partly drawn) [15-Benzyl-30-ethyl-33-(1-hydroxy-2-methyl-hex-4-enyl)-6,9,18,24-tetraisobutyl-3,21-diisopropyl-1,4,7,10,12,19,25,28-octamethyl-1,4,7,10,13,16,19,22,25,28,31undecaaza-cyclotritriacontan-2,5,8,11,14,17,20,23,26,29,32-undecaone] registered a Ki of 33 nM. Against the preceding compound, the Ki is about 5.5-fold higher.

In turn, `C/C=C/CC(C)C(O)[C@H]1C(=O)N[C@@H](CC)C(=O)N(C)[C@H](C)C(=O)N(C)[C@@H](CC(C)C)C(=O)N[C@@H](C(C)C)C(=O)N(C)[C@H](CC(C)C)C(=O)N[C@H](Cc2ccccc2)C(=O)N[C@H](C)C(=O)N(C)[C@H](CC(C)C)C(=O)N(C)[C@@H](CC(C)C)C(=O)N(C)[C@H](C(C)C)C(=O)N1C` (stereo partly drawn) [15-Benzyl-30-ethyl-33-(1-hydroxy-2-methyl-hex-4-enyl)-6,9,18,24-tetraisobutyl-3,21-diisopropyl-1,4,7,10,12,19,25,27,28-nonamethyl-1,4,7,10,13,16,19,22,25,28,31undecaaza-cyclotritriacontan-2,5,8,11,14,17,20,23,26,29,32-undecaone] came in with an inhibition constant (Ki) of 6 nM. Compared with the last compound, the Ki is about 5.5-fold lower.

Values taken from BindingDB's records for doi:10.1021/jm00021a005 (University of Wisconsin-Madison, 1995).
